Reference: publication PMC10501769 (eLife, 2023)

What follows are compounds tested against Rv0158 (Mycobacterium tuberculosis, UniProt O53641) (assay: biochemical).
Chain of Rv0158 (O53641 entry or part of it): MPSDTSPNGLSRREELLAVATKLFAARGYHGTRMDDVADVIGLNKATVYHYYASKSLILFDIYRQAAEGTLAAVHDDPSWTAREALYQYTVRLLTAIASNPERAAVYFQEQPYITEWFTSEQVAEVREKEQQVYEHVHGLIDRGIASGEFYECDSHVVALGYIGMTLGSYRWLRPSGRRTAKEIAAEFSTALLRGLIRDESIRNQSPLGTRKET

SMILES | Kd [nM]
CCCCCCCCCCCC(=O)SCCNC(=O)CCNC(=O)[C@H](O)C(C)(C)COP(=O)(O)OP(=O)(O)OC[C@H]1O[C@@H](n2cnc3c(N)ncnc32)[C@H](O)[C@@H]1OP(=O)(O)O [C12-CoA] | 1100 ± 600
CCCCCCCCCCCCCCCC(=O)SCCNC(=O)CCNC(=O)[C@H](O)C(C)(C)COP(=O)(O)OP(=O)(O)OC[C@H]1O[C@@H](n2cnc3c(N)ncnc32)[C@H](O)[C@@H]1OP(=O)(O)O [C16-CoA] | 1800 ± 500
CCCCCCCCCCCCCCCCCC(=O)SCCNC(=O)CCNC(=O)[C@H](O)C(C)(C)COP(=O)(O)OP(=O)(O)OC[C@H]1O[C@@H](n2cnc3c(N)ncnc32)[C@H](O)[C@@H]1OP(=O)(O)O [C18-CoA] | 2800 ± 800
CCCCCCCCCC(=O)SCCNC(=O)CCNC(=O)[C@H](O)C(C)(C)COP(=O)(O)OP(=O)(O)OC[C@H]1O[C@@H](n2cnc3c(N)ncnc32)[C@H](O)[C@@H]1OP(=O)(O)O [Decanoyl-CoA] | 6400 ± 1200
CC(C)(COP(=O)(O)OP(=O)(O)OC[C@H]1O[C@@H](n2cnc3c(N)ncnc32)[C@H](O)[C@@H]1OP(=O)(O)O)[C@@H](O)C(=O)NCCC(=O)NCCSC(=O)CC(=O)O [Malonyl-CoA] | 2400 ± 1000
CC(C(=O)O)C(=O)SCCNC(=O)CCNC(=O)[C@H](O)C(C)(C)COP(=O)(O)OP(=O)(O)OC[C@H]1O[C@@H](n2cnc3c(N)ncnc32)[C@H](O)[C@@H]1OP(=O)(O)O (stereo partly drawn) [Methylmalonyl-CoA] | 900 ± 300
